# Experimental data reported in patent US11504382B2, “Tricyclic inhibitors of Hepatitis B virus” (Antios Therapeutics, Inc., priority 2018, dated 2022).
# pEC50: −log10 of the molar value. Read-outs that look alike come from different tables or passages of the source.
# Experiments:
# [1] = system: HBV; conditions: Phase 1b proof-of-concept clinical studies; cited from earlier work
# [2] = system: HBV; test: HBV inhibition assay in HepAD38 cells (extracellular HBV DNA by direct qPCR); assay type: cell-based, Hepatitis B virus; conditions: 96 hours; for pEC50: 8-point dose-response curve, read-out: HBV inh EC50
# [3] = 0.1 μM, relative to non-treated reference
# [4] = 0.05 μM, relative to non-treated reference
compound,measurement,setting,value
O=C(Nc1cc(F)c(F)c(F)c1)c1ccc(F)c(S(=O)(=O)N2CCC(O)CC2)c1 [NVR3-778],reduction in HBV DNA and serum HBV RNA,[1],significant reduction in HBV DNA and serum HBV RNA
"CCOC(=O)N1CC2NS(=O)(=O)c3cn(C)c(C(=O)Nc4ccc(F)c(C)c4)c3OCC2(C)C1 (single isomer, unassigned) [Example E93, Ethyl 8-((4-fluoro-3-methylphenyl)carbamoyl)-7,10a-dimethyl-3a,4,10,10a-tetrahydro-1H,7H-dipyrrolo[3,4-b:3′,4′-f][1,4,5]oxathiazocine-2(3H)-carboxylate 5,5-dioxide (Chiral 3aS,10aS or 3aR,10aR - Stereochemistry unknown)]",pEC50,[2],> 6.00
"CCOC(=O)N1CC2COc3c(cn(C)c3C(=O)Nc3ccc(F)c(C#N)c3)S(=O)(=O)NC2C1 (single isomer, unassigned) [Example E46, Ethyl 8-((3-cyano-4-fluorophenyl)carbamoyl)-7-methyl-3a,4,10,10a-tetrahydro-1H,7H-dipyrrolo[3,4-b:3′,4′-f][1,4,5]oxathiazocine-2(3H)-carboxylate 5,5-dioxide (Chiral 3aS,10aS or 3aR,10aR - Stereochemistry unknown)]",Anti HBV Activity (conc μM),[2]; [3],B (0.1) (HBV inhibition less than 50% at the concentration indicated in the table)
"Cc1cc(NC(=O)c2c3c(cn2C)S(=O)(=O)NC2CN(C(=O)C45CC(CO4)C5)CCC2CO3)ccc1F (racemic) [Example E138, Cis-7-(2-oxabicyclo[2.1.1]hexane-1-carbonyl)-N-(4-fluoro-3-methylphenyl)-2-methyl-5,5a,6,7,8,9,9a,10-octahydro-2H-pyrido[3,4-f]pyrrolo[3,4-b][1,4,5]oxathiazocine-1-carboxamide 4,4-dioxide]",pEC50,[2]; Hepatitis B virus,> 6.00
"CCOC(=O)N1CC2COc3c(cn(C)c3C(=O)Nc3ccc(F)c(C(F)F)c3)S(=O)(=O)NC2C1 (single isomer, unassigned) [Example E43, Ethyl 8-((3-(difluoromethyl)-4-fluorophenyl)carbamoyl)-7-methyl-3a,4,10,10a-tetrahydro-1H,7H-dipyrrolo[3,4-b:3′,4′-f][1,4,5]oxathiazocine-2(3H)-carboxylate 5,5-dioxide (Chiral 3aS,10aS or 3aR,10aR - Stereochemistry unknown)]",Anti HBV Activity (conc μM),[2]; [4],A (0.05) (HBV inhibition greater than 50% at the concentration indicated in the table)
same,pEC50,[2],> 6.00
"Cc1cc(NC(=O)c2c3c(cn2C)S(=O)(=O)N[C@H]2CN(C(=O)c4cnon4)C[C@H]2CO3)ccc1F [Example E105, (3aR,10aR)—N-(4-fluoro-3-methylphenyl)-7-methyl-2-(1,2,5-oxadiazole-3-carbonyl)-2,3,3a,4,10,10a-hexahydro-1H,7H-dipyrrolo[3,4-b:3′,4′-f][1,4,5]oxathiazocine-8-carboxamide 5,5-dioxide]",pEC50,[2]; Hepatitis B virus,> 6.00
"CNC(=O)N1CC[C@H]2NS(=O)(=O)c3cn(C)c(C(=O)Nc4ccc(F)c(F)c4)c3OC[C@H]21 (single isomer, unassigned) [Example E26]",inhibition at 0.1 µM,"[2]; Hepatitis B virus, 0.1 μM, relative to non-treated reference, read-out: Anti HBV Activity (conc μM)",< 50%
"CCOC(=O)N1CC2COc3c(cn(C)c3C(=O)Nc3ccc(F)c(F)c3)S(=O)(=O)NC2C1 (single isomer, unassigned) [Example E38, Ethyl 8-((3,4-difluorophenyl)carbamoyl)-7-methyl-3a,4,10,10a-tetrahydro-1H,7H-dipyrrolo[3,4-b:3′,4′-f][1,4,5]oxathiazocine-2(3H)-carboxylate 5,5-dioxide (Chiral 3aS,10aS or 3aR,10aR - Stereochemistry unknown)]",Anti HBV Activity (conc μM),[2]; [3],B (0.1) (HBV inhibition less than 50% at the concentration indicated in the table)
"Cn1cc2c(c1C(=O)Nc1ccc(F)c(F)c1)OC[C@@]1(O)CCC[C@H]1NS2(=O)=O (racemic) [Example E30, cis-N-(3,4-difluorophenyl)-8a-hydroxy-2-methyl-5a,6,7,8,8a,9-hexahydro-2H,5H-cyclopenta[f]pyrrolo[3,4-b][1,4,5]oxathiazocine-1-carboxamide 4,4-dioxide]",inhibition at 0.5 µM,"[2]; Hepatitis B virus, 0.5 μM, relative to non-treated reference, read-out: Anti HBV Activity (conc μM)",< 50%
"Cc1cc(NC(=O)c2c3c(cn2C)S(=O)(=O)NC2CN(C(=O)c4ncoc4C)CC2CO3)ccc1F (stereo not drawn) [Example E147, Trans-N-(4-fluoro-3-methylphenyl)-7-methyl-2-(5-methyloxazole-4-carbonyl)-2,3,3a,4,10,10a-hexahydro-1H,7H-dipyrrolo[3,4-b:3′,4′-f][1,4,5]oxathiazocine-8-carboxamide 5,5-dioxide]",pEC50,[2]; Hepatitis B virus,> 6.00
"Ethyl 8-((4-fluoro-3-methylphenyl)carbamoyl)-7-methyl-3a,4,10,10a-tetrahydro-1H,7H-dipyrrolo[3,4-b:3′,4′-f][1,4,5]oxathiazocine-2(3H)-carboxylate 5,5-dioxide (3aS,10aS) [Example E40]",Anti HBV Activity (conc μM),[2]; [3],B (0.1) (HBV inhibition less than 50% at the concentration indicated in the table)
"Cc1cc(NC(=O)c2c3c(cn2C)S(=O)(=O)NC2CN(c4nnco4)CC2CO3)ccc1F (stereo not drawn) [Example E49, cis-N-(4-fluoro-3-methylphenyl)-7-methyl-2-(1,3,4-oxadiazol-2-yl)-2,3,3a,4,10,10a-hexahydro-1H,7H-dipyrrolo[3,4-b:3′,4′-f][1,4,5]oxathiazocine-8-carboxamide 5,5-dioxide]",pEC50,[2]; Hepatitis B virus,> 6.00
"Cc1nnc(C(=O)N2C[C@H]3COc4c(cn(C)c4C(=O)Nc4cc(F)c(F)c(F)c4)S(=O)(=O)N[C@H]3C2)o1 [Example E97, (3aR,10aR)-7-methyl-2-(5-methyl-1,3,4-oxadiazole-2-carbonyl)-N-(3,4,5-trifluorophenyl)-2,3,3a,4,10,10a-hexahydro-1H,7H-dipyrrolo[3,4-b:3′,4′-f][1,4,5]oxathiazocine-8-carboxamide 5,5-dioxide]",pEC50,[2]; Hepatitis B virus,> 6.00
"Cc1noc(C(=O)N2C[C@H]3COc4c(cn(C)c4C(=O)Nc4ccc(F)c(C)c4)S(=O)(=O)N[C@H]3C2)n1 [Example E103, (3aR,10aR)—N-(4-fluoro-3-methylphenyl)-7-methyl-2-(3-methyl-1,2,4-oxadiazole-5-carbonyl)-2,3,3a,4,10,10a-hexahydro-1H,7H-dipyrrolo[3,4-b:3′,4′-f][1,4,5]oxathiazocine-8-carboxamide 5,5-dioxide]",pEC50,[2]; Hepatitis B virus,> 6.00
"CCOC(=O)N1CC2COc3c(cn(C)c3C(=O)Nc3ccc(F)c(F)c3)S(=O)(=O)NC2C1 (single isomer, unassigned) [Example E37, Ethyl 8-((3,4-difluorophenyl)carbamoyl)-7-methyl-3a,4,10,10a-tetrahydro-1H,7H-dipyrrolo[3,4-b:3′,4′-f][1,4,5]oxathiazocine-2(3H)-carboxylate 5,5-dioxide (Chiral 3aS,10aS or 3aR,10aR - Stereochemistry unknown)]",Anti HBV Activity (conc μM),[2]; [4],A (0.05) (HBV inhibition greater than 50% at the concentration indicated in the table)
